From US20090176817A1, “Method of Treatment of Diarrhea-Predominant Irritable Bowel Syndrome in a Subject” (priority 2005, published 2009)
Read-outs that look alike come from different tables or passages of the source.

Key:
[1] = Study S.241.1.104: Ortho Tri-Cyclen pharmacokinetics with cilansetron 2 mg TID; type: in vivo, human; settings: for Cmin / Cmax / AUC / half-life: arith. mean; for AUC: read-out: AUC(0-τ); for half-life: read-out: T½ (converted)
Source text: The effects of concomitant administration of cilansetron and a commonly used oral contraceptive, Ortho Tri-Cyclen (ORC), on the pharmacokinetics and pharmacodynamics of ORC and the pharmacokinetics of cilansetron has been evaluated in a randomized, double-blind, placebo-controlled, multiple-dose, 2-period, crossover study in 20 healthy, female subjects, aged 19 to 42 years. Subjects received the following two treatments during each of two 28-day study periods (2 ORC cycles) in a randomized, crossover fashion: Treatment B (reference treatment)−ORC on Days 1-28 (standard ORC cycle)+placebo TID on Days 14-20 and a single dose of placebo on Day 21; Treatment A (test treatment)−ORC on Days 1-28 (standard ORC cycle)+cilansetron 2 mg TID on Days 14-20 and a single dose of cilansetron 2 mg on Day 21. […] For evaluation of the effect of concomitant cilansetron on the pharamacodynamics of ORC, blood samples were collected prior to morning dosing on Days 18, 19, 20, 26, 27, and 28 for measurement of serum progesterone (PG), luteinizing hormone (LH), and follicle stimulating hormone (FSH) concentrations, and untransformed data were compared statistically between treatments.

[2] = system: CYP3A4 (cilansetron metabolism); assay: in vitro; settings: human, human hepatic microsomes, probe cilansetron (100 μM), overall metabolism
[3] = system: CYP3A4 (formation of 4-hydroxy metabolites of cilansetron); assay: in vitro; settings: human, human hepatic microsomes, probe cilansetron (100 μM), formation of the 4-hydroxy metabolites
[4] = system: cilansetron metabolism (ketoconazole 25 μM used as general inhibitor); assay: in vitro; settings: human, human hepatic microsomes, probe cilansetron (100 μM), overall metabolism
[5] = system: patients with malignant tumors; assay: Study S.241.2.101: cisplatin-induced nausea and vomiting; type: in vivo, human; settings: IV 8 mg TID
Method: (§1) The effect of cilansetron on nausea and vomiting has been studied in 2 clinical studies in cancer patients. Both studies were randomized, singleblind, positive-controlled, parallel-group, pilot studies in male and female patients with malignant tumors, to investigate the effect of cilansetron on cytostatic-induced nausea and vomiting. In both studies, patients were on their first cycle of chemotherapy and were being treated with cisplatin (275 mg/m2 as a single dose in Study S.24 1.2.10 1 and […] for 5 days in Study K.24 1 S O 17). Patients in Study S.24 1.2.10 1 were aged 40-74 years (ITT population=16) and patients in Study K.24 1 S O 17 were aged 39-74 years (ITT population=19). In both studies, patients were randomized to receive either […] or IV ondansetron 8 mg TID for 1 day (Study S.241.2.101) or 5 days (Study K.2415017), corresponding to the day(s) of their cisplatin administration. If nausea and vomiting were completely controlled on a treatment day, the second and/or third doses of cilansetron or ondansetron could be omitted on that day. The primary efficacy parameter in both studies was the combination of the occurrence of vomiting and the severity of nausea, with a responder being defined as a patient with no vomiting and not more than mild nausea during the treatment day(s). […]

[6] = system: patients with malignant tumors; assay: Study K.241.5017: cisplatin-induced nausea and vomiting; type: in vivo, human; settings: IV 8 mg TID
Method: as §1

[7] = female, human, plasma, oral, ORC + Cilansetron 2 mg TID, Day 21
[8] = female, human, plasma, oral, ORC + Placebo, Day 21

Q: What does the source list for C#C[C@]1(O)CC[C@H]2[C@@H]3CCc4cc(O)ccc4[C@H]3CC[C@@]21C [EE, ethinyl estradiol]?
A: Cmin ([1]; ORC + Cilansetron 2 mg TID, Day 21): 0.022 ng/mL; Cmin ([1]; ORC + Placebo, Day 21): 0.024 ng/mL; Cmax [1, 7]: 0.144 ng/mL; AUC [1, 7]: 1.21 ng·h/mL; half-life [1, 7]: 20.9 h; Tmax ([1]; female, human, plasma, oral, ORC + Cilansetron 2 mg TID, Day 21, median): 1.25 h; Cmax [1, 8]: 0.156 ng/mL; AUC [1, 8]: 1.32 ng·h/mL; half-life [1, 8]: 21.2 h; Mean AUC(0-τ) decrease with concomitant cilansetron ([1]; in vivo): 10%; Mean Cmax decrease with concomitant cilansetron ([1]; in vivo): 8%

Q: With CC(=O)N1CCN(c2ccc(OCC3COC(Cn4ccnc4)(c4ccc(Cl)cc4Cl)O3)cc2)CC1 (stereo not shown) [ketoconazole] as the compound, how does the inhibition at 1 μM [2] read?
A: ~70%

Q: And the inhibition at 1 μM [3]?
A: 47%

Q: And the inhibition at 25 μM [4]?
A: 93%

Q: Which results are given for Cc1nccn1CC1CCc2c(c3ccccc3n2C)C1=O (stereo not shown) [ondansetron, reference compound]?
A: Response rate [5]: 25.0%; Response rate [6]: 60.0%
